As a reminder, the half-life is the time needed for the level to fall by half in the phase considered.

Where a SMILES comes first, the peptide text is derived from it. Bridges are numbered along the chain shown (N, C = ends).

Data set [1] in a line: Serum stability in 90% human serum at 37° C., RP-HPLC. The class given is in vitro ADME. As to the method:
The new compounds were incubated with 90% human serum at 37° C. Aliquots were extracted at different incubation times. Methanol was added to precipitate the proteins from the serum, it was centrifuged and the supernatant was subject to a chromatographic analysis using RP-HPLC (Gradient: 20-80% B in 30 min, B=0.07% TFA in acetonitrile). The disappearance of the initial product was analyzed using the area corresponding to the initial product and half-life time was calculated.

Data set [2] deals with acute colitis induced by Dextran sulfate sodium (DSS). The data set is described as follows: Experimental model of ulcerative colitis (DSS-induced acute colitis). The class given is in vivo, C57Bl/6 male mice. As to the method:
7-8 week old C57Bl/6 male mice were used. They were given voluntary drinking water with 5% of Dextran sulfate sodium (DSS) from day 0 to day 7 of the study in order to induce acute colitis. Animals in the control group were supplied with normal water. […] CST was used as a reference product. The severity of the colitis was assessed daily using a scale of values from 0 to 4 indicating the clinical disease activity index considering stool consistency, the presence of bloody stools and weight loss. Mice were sacrificed on day 8 of the study and after the necropsy the extent of macroscopic damage was established in the colon using a scale from 0 to 8. […] The average weight of the sick mice's colons was 763 mg, the average weight of the colons of the sick mice treated with CST was 621 mg and that of the colons of the sick mice treated with the new cortistatin analogues was between 614-621 mg, indicating a reduction of the inflammation of the colon.

In the case of `C[C@@H](O)[C@@H]1NC(=O)[C@H](CCCCN)NC(=O)[C@H](Cc2c[nH]c3ccccc23)NC(=O)[C@H](Cc2ccccc2)NC(=O)[C@H](Cc2ccccc2)NC(=O)[C@H](CC(N)=O)NC(=O)[C@H](CCCCN)NC(=O)[C@@H](NC(=O)[C@@H]2CCCN2)CSSC[C@@H](C(=O)N[C@@H](CCCCN)C(=O)O)NC(=O)[C@H](CO)NC(=O)[C@H](CO)NC(=O)[C@H](Cc2ccccc2)NC1=O` [cortistatin] (H-PCKNFFWKTFSSCK-OH; disulfide 2-13), the half-life in data set [1] is 2 min. Besides, the “clinical disease activity index (0-4)” value in data set [2] (5% DSS, 0.4 mg/Kg s.c. days 1, 2 and 3, diseased group 3.7) was 1-1.5. The “average weight of colon” value in data set [2] (necropsy day 8, sick mice 763 mg) came out at 621 mg. Further, the “macroscopic grade of colitis (0-8)” value in data set [2] (necropsy day 8, sick mice 6.6) stood at 0.87.

The values above are taken from patent US12297294B2, “Cortistatin analogues for the treatment of inflammatory and/or immune diseases” (BCN PEPTIDES, S.A., priority 2013, dated 2025).
